Four compounds from patent US20120015812A1, “Mixtures of strobilurins with triexapac-ethyl” (BASF SE, priority 2003, published 2012) can be followed below.

For assay [1], the system named is soybean plants (cv. “Delta Pine”). The experiment in a line: Reduction of ethylene formation in leaves of soybean plants (gas chromatography). Format: in vivo. The following applies: for Ethylene Evolution per Unit Leaf Weight [% of Control]: greenhouse, leaf spray 750 l/ha, 24 hours after treatment, shoots wilted 10 min, incubated 60 min, g/ha of ai: Co++ 40, pyraclostrobin 100, salicylic acid 500. On the procedure:
Soybean plants were raised under greenhouse conditions with two plants each per 12-cm pot. Spray treatments of the leaves were carried out with a volume of liquid of 750 l/ha when the plants had developed one to two trifoliate leaves. 24 hours after treatment, the shoots of the soybean plants were dissected above the cotyledons and wilted for 10 minutes under laboratory conditions. Shoots representing a distinct treatment were incubated for 60 minutes under laboratory conditions in a 100-ml Erlenmeyer flask sealed with a rubber cap. Thereafter, gas samples were taken and analyzed for their ethylene content by gas chromatography.
Reduction of ethylene formation in leaves of soybean plants (cv. “Delta Pine”)

The subject of assay [2] is soybeans (cv. “Embrapa 48”). As to the kind of experiment: Yield improvement of soybeans naturally infected with Phakopsora pachyrhizi. The format is in vivo, soybean. The following applies: as in Example 3; pyraclostrobin 112.5 g/ha, Co++ 29 g/ha, alone or combined. From the text:
Seeds of soybean cv. “Embrapa 48” were planted and grown under standard conditions with adequate supply of water and nutrients. Infection with Phakopsora pachyrhizi occurred naturally. The active ingredients have been applied twice, 62 and 68 days after seeding.
Yield improvement of soybeans (cv. “Embrapa 48)

Assay [3] concerns Phakopsora pachyrhizi. The experiment in a line: Spray treatment of soybeans preinfected with Phakopsora pachyrhizi: infection by pathogen. Format: in vivo. The following applies: soybeans cv. RS10, 8-12% preinfection, spray application, 8 days after treatment; 133 g/ha pyraclostrobin. On the procedure:
(§1) During fruit formation, soybeans of the cultivar RS10 with 8-12% preinfection by Phakopsora pachyrhizi were treated by spray application using customary sprayers with a mixture of 133 g/ha of pyraclostrobin, 80 g/ha of CoCl2×6 H2O(=20 g/ha of cobalt) and 100 g/ha of prohexadione-Ca. Entirely untreated plants and plants treated with 133 g/ha of pyraclostrobin were used for comparison.

Assay [4] has as its system soybeans of the cultivar RS10. The experiment in a line: Spray treatment of rust-preinfected soybeans: leaf drop and yield. The following applies: soybeans cv. RS10, 8-12% preinfection by Phakopsora pachyrhizi, 8 days after treatment; pyraclostrobin 133 g/ha alone or with 80 g/ha CoCl2×6 H2O and 100 g/ha prohexadione-Ca. Format: in vivo, soybean. On the procedure:
as §1

For `O.O.O.O.O.O.[Cl-].[Cl-].[Co+2]` [CoCl2 × 6 H2O, CoCl2×6 H2O], in assay [1], the “Ethylene Evolution per Unit Leaf Weight [% of Control]” value is 41 % of Control. As to `[Co+2]` [Co^++], in assay [2], the “seed yield improvement above the control” value came out at 22%. As to `O=C(O)c1ccccc1O` [Salicylic Acid], the “Ethylene Evolution per Unit Leaf Weight [% of Control]” value in assay [1] is 97 % of Control. On to `COC(=O)N(OC)c1ccccc1COc1ccn(-c2ccc(Cl)cc2)n1` [pyraclostrobin, methyl N-{2-[1-(4-chlorophenyl)-1H-pyrazol-3-yloxymethyl]phenyl}(N-methoxy)carbamate], for which, in assay [3], the infection by pathogen result is listed as “less infection by pathogen than the entirely untreated plants”. The leaf drop result in assay [4] was “considerable leaf drop”. Also, the “ethylene formation in drought-stressed soybean leaves” value in assay [1] (summary in words of Example 2) is listed as “inhibits ethylene formation”. Further, the “seed yield improvement above the control” value in assay [2] is 24%.
